Consider one molecule from US20100310488A1, “SELECTING/IDENTIFYING AND ADMINISTERING ACTIVE AGENTS USEFUL FOR MODIFYING THE SHAPE OF KERATIN/HAIR FIBERS” (L'OREAL, priority 2007, published 2010).

The subject of the test is fibroblasts (dermal papilla, connective sheath, dermal). The test is described as follows: Assaying of sulfated glycosaminoglycans in fibroblast culture (Blyscan). The class given is cell-based, human. Conditions: 7 days. The procedure:
The fibroblasts are cultured in DMEM medium, 10% foetal calf serum (Gibco, Invitrogen), 1 mM MEM pyruvate (Gibco, Invitrogen) and 25 units/ml of penicillin-streptomycin (Gibco, Invitrogen). The dermal papilla fibroblast (P6), connective sheath fibroblast (P6) and dermal fibroblast are then counted using a Coulter Counter Z2 (Beckman Coulter inc., Fullerton, USA) and seeded at 2×10^5 cells per well in a 12-well plate, with the wells containing 1.5 ml of medium alone, which is the “control” condition, or being treated with 3 mM of 1,5-anhydro-6,8-dideoxy-L-glucooctitol. After 7 days, the supernatant is recovered and stored at −80° C. until the GAGs are assayed. […]
The proteins present in the lysate are assayed using the Dc Protein assay kit (Biorad). The amount of glycosaminoglycans is measured in the supernatant and the lysate.
The glycosaminoglycans are assayed using the Blyscan glycosaminoglycan isolation & concentration kit (Biocolor, Newtownabbey, Northern Ireland) and the Blyscan sulfated glycosaminoglycan assay kit. […] Each sample to be measured is mixed with 700 μl of the cetylpyridinium chloride solution in a 1.5 ml centrifuge tube, and then incubated on a rotary mixer thermostated at 37° C., at 250 rpm, for 2 hours. […] The absorbance of the solution at 656 nm is measured using a polystyrene semi-microcuvette on a Biomate 5 spectrometer (Thermo). […]

For the molecule `CC(O)CC1OCC(O)C(O)C1O` [1,5-anhydro-6,8-dideoxy-L-glucooctitol], the “increase in amount of glycosaminoglycans secreted” value (relative to control (medium alone), 3 mM in method) is recorded as “up to 7 times”. Further, the “GAG synthesis by the fibroblasts” value (versus control (medium alone)) is “increase in GAG synthesis by the fibroblasts, proportional to the concentration”.
